Our source for the inhibition and IC50 values is patent US12648946B2, “Combination of antibody-pyrrolobenzodiazepine derivative conjugate and PARP inhibitor” (DAIICHI SANKYO COMPANY, LIMITED, priority 2019, dated 2026).

In assay [1] the test system is human pharyngeal cancer cell line FaDu. Description: Cell growth inhibition test (3). In kind it is cell-based. To be noted: 144 h. The method, then: The human pharyngeal cancer cell line FaDu obtained from ATCC (American Type Culture Collection) was used for evaluation. Cells were prepared with MEM containing 10% fetal bovine serum (GE Healthcare), MEM Non-Essential Amino Acids Solution (Thermo Fisher Scientific), and Sodium Pyruvate (Thermo Fisher Scientific) (Thermo Fisher Scientific; hereinafter, referred to as EMEM medium) to reach 6.25×10^3 cells/mL, and 80 μL portions of them were added into a 96-well cell culture microplate. After addition of the cells, the cells were cultured at 37° C. and 5% CO2 overnight.
(§1) On the next day, 10 μL portions of pyrrolobenzodiazepine derivative A, B, or C diluted with EMEM medium to 100 pM, 50 pM, 25 pM, 12.5 pM, 6.25 pM, 3.13 pM, 1.56 pM, or 0.78 pM were added to the microplate. To each well without any pyrrolobenzodiazepine derivative, 10 μL of EMEM medium was added. Further, 10 μL portions of talazoparib prepared with EMEM medium to reach 2 nM were added to the microplate. To each well without talazoparib, 10 μL of EMEM medium was added. Thereafter, the microplate was cultured at 37° C. and 5% CO2 for 6 days. After culturing, the microplate was taken out of the incubator, and left to stand at room temperature for 30 minutes. CellTiter-Glo Luminescent Cell Viability Assay (Promega Corporation) in an amount equivalent to that of the culture solution was added, and stirred using a plate mixer. The microplate was left to stand at room temperature for 10 minutes, and thereafter the amount of emission was measured by using a plate reader (PerkinElmer).
Cell survival rates in wells with derivative A, B, or C were calculated by using the following formula.
[formula] • a: Mean value of amounts of emission from wells with derivative A, B, or C • b: Mean value of amounts of emission from wells with medium • IC50 values were calculated by using the following formula.
[formula] • a: Concentration of derivative A, B, or C, a • b: Concentration of derivative A, B, or C, b • c: Cell survival rate when derivative A, B, or C of concentration a was added • d: Cell survival rate when derivative A, B, or C of concentration b was added • a and b satisfy a>b at points sandwiching a cell survival rate of 50%.
Cell survival rates in wells with derivative A, B, or C added together with 2 nM talazoparib were calculated by using the following formula.
[formula] • a: Mean value of amounts of emission from wells with derivative A, B, or C added together with 2 nM talazoparib • b: Mean value of amounts of emission from wells with 2 nM talazoparib • IC50 values were calculated by using the following formula.
[formula] • a: Concentration of derivative A, B, or C, a • b: Concentration of derivative A, B, or C, b • c: Cell survival rate when derivative A, B, or C of concentration a and 2 nM talazoparib were added • d: Cell survival rate when derivative A, B, or C of concentration b and 2 nM talazoparib were added • a and b satisfy a>b at points sandwiching a cell survival rate of 50%.

In assay [2] the test system is human ovarian cancer cell line SK-OV-3. In words: Cell growth inhibition test (4). The assay is classed as cell-based. The conditions noted are these: for pIC50: SK-OV-3, 144 h. How it is done: Cells of the human ovarian cancer cell line SK-OV-3 purchased from ATCC (American Type Culture Collection) were used for evaluation. Cells were prepared with McCoy's 5A (Modified) Medium containing 10% fetal bovine serum (GE Healthcare) (Thermo Fisher Scientific; hereinafter, referred to as McCoy's SA medium) to reach 1.25×10^4 cells/mL, and 80 μL portions of them were added into a 96-well cell culture microplate. After addition of the cells, the cells were cultured at 37° C. and 5% CO2 overnight.
as §1, with “derivative A” for “derivative A, B, or C”, “with McCoy's 5A” for “with EMEM”, “without” for “without any”, “pyrrolobenzodiazepine derivative A,” for “pyrrolobenzodiazepine derivative,”, “of McCoy's 5A” for “of EMEM”, “reach 5” for “reach 2”
Cell survival rates in wells with derivative A were calculated by using the following formula.
[formula] • a: Mean value of amounts of emission from wells with derivative A • b: Mean value of amounts of emission from wells with medium • IC50 values were calculated by using the following formula. […]
Cell survival rates in wells with derivative A added together with 5 nM talazoparib were calculated by using the following formula. […]

pIC50: −log10 of the molar value. Read-outs that look alike come from different tables or passages of the source.

For orientation: inhibition means the percentage by which the read-out fell short of the control. For `Cn1ncnc1[C@H]1c2n[nH]c(=O)c3cc(F)cc(c23)N[C@@H]1c1ccc(F)cc1` [talazoparib], in assay [1] (2 nM talazoparib alone, 6 days), the inhibition at 0.002 µM is below 10%. Also, in assay [2] (144 h, 5 nM talazoparib alone, SK-OV-3, 6 days), the inhibition at 0.005 µM was below 10%.
Usually pIC50 stands for the IC50 on a negative log10 scale, so that one unit is a factor of ten. For the compound `COc1ccc(C2=CN3C(=O)c4cc(OC)c(OCCCCCOc5cc6c(cc5OC)C(=O)N5CC7(CC7)C[C@H]5C=N6)cc4NC[C@@H]3C2)cc1` [derivative A, (11a′S)-7′-Methoxy-8′-[(5-{[(11aS)-7-methoxy-2-(4-methoxyphenyl)-5-oxo-5,10,11,11a-tetrahydro-1H-pyrrolo[2,1-c][1,4]benzodiazepin-8-yl]oxy}pentyl)oxy]-1′,11a′-dihydro-5′H-spiro[cyclopropane-1,2′-pyrrolo[2,1-c][1,4]benzodiazepine]-5′-one], the negative logarithm of the IC50 (pIC50) is 11.11 in assay [1] (read-out: IC50, growth-suppressing effect, added singly, FaDu, 6 days (test 3)); 11.33 in assay [1] (read-out: IC50, growth-suppressing effect, added together with 2 nM talazoparib, FaDu, 6 days); 11.09 in assay [2] (read-out: IC50, growth-suppressing effect, added singly, SK-OV-3, 6 days); 11.34 in assay [2] (read-out: IC50, growth-suppressing effect, added together with 5 nM talazoparib, SK-OV-3, 6 days).
